Measured values published in ChEMBL document CHEMBL2331414, “N-1, C-3 substituted indoles as 5-LOX inhibitors--in vitro enzyme immunoaasay, mass spectral and molecular docking investigations” (Bioorg Med Chem Lett, 2013).

What was measured:
[1] = target: T1, Polyunsaturated fatty acid 5-lipoxygenase (Homo sapiens, UniProt P09917); assay: Inhibition of 5LOX (unknown origin) using arachidonic acid as substrate after 5 mins by spectrophotometric analysis
T1 sequence (P09917 whole entry): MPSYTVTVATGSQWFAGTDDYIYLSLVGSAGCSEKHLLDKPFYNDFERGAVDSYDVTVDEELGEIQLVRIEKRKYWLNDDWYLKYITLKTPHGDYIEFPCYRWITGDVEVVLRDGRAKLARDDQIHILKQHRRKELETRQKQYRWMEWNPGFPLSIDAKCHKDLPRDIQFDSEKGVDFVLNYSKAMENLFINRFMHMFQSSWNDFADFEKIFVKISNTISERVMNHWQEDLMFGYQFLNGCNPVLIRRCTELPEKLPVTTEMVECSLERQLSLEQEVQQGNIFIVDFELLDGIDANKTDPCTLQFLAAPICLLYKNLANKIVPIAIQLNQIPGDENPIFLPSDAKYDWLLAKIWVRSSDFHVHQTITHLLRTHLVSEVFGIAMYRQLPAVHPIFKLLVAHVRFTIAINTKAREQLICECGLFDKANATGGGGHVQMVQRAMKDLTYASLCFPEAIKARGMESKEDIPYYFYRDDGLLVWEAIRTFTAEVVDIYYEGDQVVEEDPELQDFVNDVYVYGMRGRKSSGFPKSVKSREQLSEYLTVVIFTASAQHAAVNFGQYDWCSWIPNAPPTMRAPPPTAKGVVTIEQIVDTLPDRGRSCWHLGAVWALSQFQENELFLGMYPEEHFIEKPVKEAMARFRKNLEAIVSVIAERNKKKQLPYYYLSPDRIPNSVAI

[2] = target: T2, Polyunsaturated fatty acid 5-lipoxygenase (Homo sapiens) (UniProt P09917); assay: Inhibition of 5LOX (unknown origin) using arachidonic acid as substrate at 0.01 uM after 5 mins by spectrophotometric analysis
T2 sequence (whole entry): T1 sequence (P09917 whole entry)

[3] = target: T2, Polyunsaturated fatty acid 5-lipoxygenase (Homo sapiens); assay: Inhibition of 5LOX (unknown origin) using arachidonic acid as substrate at 0.1 uM after 5 mins by spectrophotometric analysis
[4] = target: T2, Polyunsaturated fatty acid 5-lipoxygenase (Homo sapiens); assay: Inhibition of 5LOX (unknown origin) using arachidonic acid as substrate at 1 uM after 5 mins by spectrophotometric analysis
[5] = target: T2, Polyunsaturated fatty acid 5-lipoxygenase (Homo sapiens); assay: Inhibition of 5LOX (unknown origin) using arachidonic acid as substrate at 10 uM after 5 mins by spectrophotometric analysis

Row | Compound | IC50 [1] [µM] | inhibition [2] [%] | inhibition [3] [%] | inhibition [4] [%] | inhibition [5] [%]
1 | O=C(C(=O)N1CCOCC1)c1cn(C(=O)/C=C/c2ccccc2)c2ccccc12 | 5 | 2.5 | 21.1 | 40.7 | 59.2
2 | O=C(C(=O)N1CCCC1)c1cn(C(=O)c2ccccc2)c2ccccc12 | 1 | 6.8 | 17.4 | 54.2 | 59.6
3 | COc1ccc2c(c1)c(C(=O)C(=O)N1CCCC1)cn2C(=O)/C=C/c1ccccc1 | 1 | 5.9 | 25.6 | 54.5 | 68.6

The remaining compounds from weak to strong by IC50 [1], led by results:

Row | IC50 [1] [µM] | inhibition [2] [%] | inhibition [3] [%] | inhibition [4] [%] | inhibition [5] [%] | Compound
4 | 1 | 4.7 | 22 | 53.8 | 59.2 | COc1ccc2c(c1)c(C(=O)C(=O)N1CCOCC1)cn2OS(=O)(=O)c1ccc(C)cc1
5 | 0.6 | 0.9 | 27.8 | 63.8 | 95.4 | Cc1ccc(S(=O)(=O)n2cc(C(=O)C(=O)N3CCCC3)c3ccccc32)cc1
